Reference: patent US11161856B2 (H. Lundbeck A/S, priority 2017, dated 2021)

Experiments:
[1] = target: T1, ABHD6 (Mus musculus, UniProt Q8R2Y0); test: In vitro competitive activity-based protein profiling, mouse brain proteome (ABHD6); assay type: biochemical; conditions: mouse brain proteome; concentration not given (μM)
T1 construct: Brain; from tissue; host or cells: mouse brain proteome
T1 sequence (Q8R2Y0 1-336): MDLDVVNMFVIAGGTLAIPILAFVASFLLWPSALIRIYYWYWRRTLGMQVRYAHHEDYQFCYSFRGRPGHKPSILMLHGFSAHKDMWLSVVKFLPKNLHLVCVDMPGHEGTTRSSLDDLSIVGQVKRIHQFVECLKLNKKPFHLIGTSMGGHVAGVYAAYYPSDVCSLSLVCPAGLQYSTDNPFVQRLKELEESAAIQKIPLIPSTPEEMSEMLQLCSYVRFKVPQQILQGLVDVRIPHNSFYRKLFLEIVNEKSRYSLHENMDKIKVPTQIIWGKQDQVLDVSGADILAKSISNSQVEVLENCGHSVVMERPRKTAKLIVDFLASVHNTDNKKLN
Protocol: [The source words this procedure for another target and reports this target under the same test.] In Vitro Competitive Activity-Based Protein Profiling.
Proteomes (human prefrontal cortex or cell membrane fractions) (50 μL, 1.0 mg/mL total protein concentration) were preincubated with varying concentrations of inhibitors at 37° C. After 30 min, FP-Rh or HT-01 (1.0 μL, 50 μM in DMSO) was added and the mixture was incubated for another 30 min at room temperature. Reactions were quenched with SDS loading buffer (15 μL-4×) and run on SDS-PAGE.

[2] = target: T2, MGLL (Mus musculus, UniProt O35678); test: In vitro competitive activity-based protein profiling, mouse brain proteome (MGLL); assay type: biochemical; parameters: IC50 MGLL Brain (Mouse, μM): scale not given here; conditions: for % Inh MGLL Brain (Mouse, μM): concentration not given (μM)
T2 construct: Brain; from tissue; host or cells: mouse brain proteome
T2 sequence (O35678 1-303): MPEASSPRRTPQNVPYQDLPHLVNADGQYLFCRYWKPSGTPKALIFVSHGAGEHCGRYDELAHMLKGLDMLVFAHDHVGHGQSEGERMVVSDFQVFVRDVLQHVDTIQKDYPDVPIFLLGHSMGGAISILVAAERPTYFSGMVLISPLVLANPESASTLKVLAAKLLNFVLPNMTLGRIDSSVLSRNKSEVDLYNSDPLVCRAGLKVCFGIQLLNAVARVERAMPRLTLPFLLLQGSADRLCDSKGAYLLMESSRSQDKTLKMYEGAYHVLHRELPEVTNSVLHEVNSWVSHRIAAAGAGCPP

Structure (SMILES)	% Inh ABHD6 Brain (Mouse, μM) [1]	% Inh MGLL Brain (Mouse, μM) [2]	IC50 MGLL Brain (Mouse, μM) [2]
O=C(OC(C(F)(F)F)C(F)(F)F)N1CCC2(CC1)CN(Cc1c(Cl)cccc1N1CCN(C3CC3)CC1)C2 [Example 58, 1,1,1,3,3,3-Hexafluoropropan-2-yl 2-(2-chloro-6-(4-cyclopropvlpiperazin-1-yl)benzyl)-2,7-diazaspiro[3.5]nonane-7-carboxylate]	### (### is ≥75%)	### (### is ≥75%)	
O=C(OC(C(F)(F)F)C(F)(F)F)N1CCC2(CC1)CN(Cc1ccc(C(F)(F)F)cc1)C2 [Example 69, 1,1,1,3,3,3-Hexafluoropropan-2-yl 2-(4-(trifluoromethyl)benzyl)-2,7-diazaspiro[3,5]nonane-7-carboxylate]	### (### is ≥75%)	### (### is ≥75%)	
CS(=O)(=O)N1CC2(CCN(c3cc(Cl)ccc3CN3CCN(C(=O)OC(C(F)(F)F)C(F)(F)F)CC3)CC2)C1 [Example 212, 1,1,1,3,3,3-Hexafluoropropan-2-yl 4-(4-chloro-2-(2-(methylsulfonyl)-2,7-diazaspiro[3.5]nonan-7-yl)benzyl)piperazine-1-carboxylate]	## (## is between 25 and 75%)	### (### is ≥75%)	
CS(=O)(=O)N1CCC2(CCN(c3cccc(Cl)c3CN3CC4(CCN(C(=O)OC(C(F)(F)F)C(F)(F)F)CC4)C3)CC2)C1 [Example 61, 1,1,1,3,3,3-Hexafluoropropan-2-yl 2-(2-chloro-6-(2-(methylsulfonyl)-2,8-diazaspiro[4.5]decan-8-yl)benzyl)-2,7-diazaspiro[3.5]nonane-7-carboxylate]	### (### is ≥75%)	### (### is ≥75%)	
CS(=O)(=O)N1CCC2(CCN(c3cc(C(F)(F)F)ccc3CN3CCN(C(=O)OC(C(F)(F)F)C(F)(F)F)CC3)C2)CC1 [Example 196, 1,1,1,3,3,3-Hexafluoropropan-2-yl 4-(2-(8-(methylsulfonyl)-2,8-diazaspiro[4.5]decan-2-yl)-4-(trifluoromcthyl)benzyl)pipera zinc-1-carboxylate]	# (# is ≤25%)	### (### is ≥75%)	
CS(=O)(=O)N1CCC2(CCN(c3cc(Cl)ccc3CN3CCN(C(=O)OC(C(F)(F)F)C(F)(F)F)CC3)C2)CC1 [Example 30, 1,1,1,3,3,3-Hexafluoropropan-2-yl 4-(4-chloro-2-(8-(methylsulfonyl)-2,8-diazaspiro[4.5]decan-2-yl)benzyl)piperazine-1-carboxylate]	# (# is ≤25%)	### (### is ≥75%)	* * *
CS(=O)(=O)N1CCN(c2cccc(C(F)(F)F)c2CN2CC3(CCN(C(=O)OC(C(F)(F)F)C(F)(F)F)CC3)C2)CC1 [Example 53, 1,1,1,3,3,3-Hexafluoropropan-2-yl 2-(2-(4-(methylsulfonyl)piperazin-1-yl)-6-(trifluoromethyl)benzyl)-2,7-diazaspiro[3.5]nonane-7-carboxylate]	### (### is ≥75%)	### (### is ≥75%)	
O=C(OC(C(F)(F)F)C(F)(F)F)N1CCC2(CC1)CN(Cc1cccc(C(F)(F)F)c1)C2 [Example 89, 1,1,1,3,3,3-Hexafluoropropan-2-yl 2-(3-(trifluoromethyl)benzyl)-2,7-diazaspiro[3.5]nonane-7-carboxylate]	### (### is ≥75%)	### (### is ≥75%)	
CC(=O)N1CC2(CCN(c3cc(Cl)cc(CN4CCCC45CN(C(=O)OC(C(F)(F)F)C(F)(F)F)C5)c3)CC2)C1 [Example 238, 1,1,1,3,3,3-Hexafluoropropan-2-yl 5-(3-(2-acetyl-2,7-diazaspiro[3.5]nonan-7-yl)-5-chlorobenzyl)-2,5- .diazaspiro[3.4]octane-2-carboxylate]	### (### is ≥75%)	### (### is ≥75%)	
O=C(OC(C(F)(F)F)C(F)(F)F)N1CC2(CCN(Cc3cccc(Oc4ccccc4)c3)CC2)C1 [Example 64, 1,1,1,3,3,3-Hexafluoropropan-2-yl 7-(3-phenoxybenzyl)-2,7-diazaspiro[3,5]nonane-2-carboxylate]	### (### is ≥75%)	## (## is between 25 and 75%)	
CS(=O)(=O)N1CCC2(CCN(c3cc(C(F)(F)F)ccc3CN3CCN(C(=O)OC(C(F)(F)F)C(F)(F)F)CC3)CC2)C1 [Example 185, 1,1,1,3,3,3-Hexafluoropropan-2-yl 4-(2-(2-(methylsulfonyl)-2,8-diazaspiro[4.5]decan-8-yl)-4-(trifluoromethyl)benzyl) piperazine-1-carboxylate]	# (# is ≤25%)	### (### is ≥75%)	
O=C(OC(C(F)(F)F)C(F)(F)F)N1CCC2(CCN(Cc3ccc(Cl)cc3N3CCOCC3)CC2)C1 [Example 181, 1,1,1,3,3,3-Hexafluoropropan-2-yl 8-(4-chloro-2-morpholinobenzyl)-2,8-diazaspiro[4.5]decane-2-carboxylate]	# (# is ≤25%)	### (### is ≥75%)	
CC(=O)N1CCC2(CCN(c3cc(Cl)ccc3CN3CCN(C(=O)OC(C(F)(F)F)C(F)(F)F)CC3)CC2)C1 [Example 178, 1,1,1,3,3,3-Hexafluoropropan-2-yl 4-(2-(2-acetyl-2,8-diazaspiro[4.5]decan-8-yl)-4-chlorobenzyl)piperazine-1-carboxylate]	# (# is ≤25%)	### (### is ≥75%)	
CC(=O)N1CC2(CCN(c3ccccc3CN3CCCC34CN(C(=O)OC(C(F)(F)F)C(F)(F)F)C4)C2)C1 [Example 230, 1,1,1,3,3,3-Hexafluoropropan-2-yl 5-(2-(2-acetyl-2,6-diazaspiro[3,4]octan-6-yl)benzyl)-2,5-diazaspiro[3.4]octane-2-carboxylate]	# (# is ≤25%)	## (## is between 25 and 75%)	
CCN1CCC2(CCN(c3cc(Cl)ccc3CN3CCN(C(=O)OC(C(F)(F)F)C(F)(F)F)CC3)CC2)C1 [Example 170, 1,1,1,3,3,3-Hexafluoropropan-2-yl 4-(4-chloro-2-(2-ethyl-2,8-diazaspiro[4.5]decan-8-yl)benzyl)piperazine-1-carboxylate]	# (# is ≤25%)	### (### is ≥75%)	
O=C(OC(C(F)(F)F)C(F)(F)F)N1CCC2(CCN(Cc3ccc(Cl)cc3N3CCC(F)CC3)CC2)C1 [Example 28, 1,1,1,3,3,3-Hexafluoropropan-2-yl 8-(4-chloro-2-(4-fluoropiperidin-1-yl)benzyl)-2,8-diazaspiro[4.5]decane-2-carboxylate]	# (# is ≤25%)	### (### is ≥75%)	* * *
CC(=O)N1CCC2(CC1)CN(c1cc(C(F)(F)F)ccc1CN1CCN(C(=O)OC(C(F)(F)F)C(F)(F)F)CC1)C2 [Example 199, 1.1,1.3.3,3-Hexafluoropropan-2-yl 4-(2-(7-acetyl-2,7-diazaspiro[3.5]nonan-2-yl)-4-(trifluoromethyl)benzyl)pipera zine-l-carboxylate]	# (# is ≤25%)	### (### is ≥75%)	
CN1CCCC12CCN(c1cc(C(F)(F)F)ccc1CN1CCN(C(=O)OC(C(F)(F)F)C(F)(F)F)CC1)CC2 [Example 215, 1,1,1,3,3,3-Hexafluoropropan-2-yl 4-(2-(1-methyl-1,8-diazaspiro[4.5]decan-8-yl)-4-(trifluoromethyl)benzyl) piperazine-1-carboxylate]	# (# is ≤25%)	### (### is ≥75%)	
O=C(OC(C(F)(F)F)C(F)(F)F)N1CCC2(CC1)CN(Cc1ccc(C(F)(F)F)cc1N1CCCCC1)C2 [Example 35]	## (## is between 25 and 75%)	### (### is ≥75%)	
CC(=O)N1CCN(c2cccc(Cl)c2CN2CC3(CCN(C(=O)OC(C(F)(F)F)C(F)(F)F)CC3)C2)CC1 [Example 49, 1,1,1,3,3,3-Hexafluoropropan-2-yl 2-(2-(4-acetylpiperazin-1-yl)-6-chlorobenzyl)-2,7-diazaspiro[3.5]nonane-7-carboxylate]	### (### is ≥75%)	### (### is ≥75%)	
CS(=O)(=O)N1CC2(CCN(c3cc(C(F)(F)F)ccc3CN3CCN(C(=O)OC(C(F)(F)F)C(F)(F)F)CC3)C2)C1 [Example 186, 1,1,1,3,3,3-Hexafluoropropan-2-yl 4-(2-(2-(methylsulfonyl)-2,6-diazaspiro[3,4]octan-6-yl)-4-(trifluoromethyl)benzyl) piperazine-1-carboxylate]	# (# is ≤25%)	### (### is ≥75%)	
